According to US20240269145A1, “USE OF INDOLE COMPOUND AS INHIBITORS OF FERROPTOSIS” (MITOIMMUNE THERAPEUTICS INC., priority 2023, published 2024):

Assays:
Assay in all cases: Cell death protection, LDH release after RSL3
Format in all cases: cell-based
NIH/3T3 = conditions: Mus musculus, NIH3T3, NIH/3T3, RSL3 3 μM, 24 hours
Description: (§1) To confirm the protective effect on cardiac cells, adrenal medulla cells, renal fibroblasts, retinal epithelial cells, lung epithelial cells, renal proximal tubule epithelial cells, hippocampal neurons, and fibroblasts, 4×10^3 to 1.2×10^4 cells of each cell type were dispensed into 96-well plates and cultured for 18 to 24 hours. Each well was treated with the example compound, which was diluted so that the final concentration became 0.001, 0.003, 0.01, 0.03, 0.1, 0.3, 1, 3, and 10 μM, and culture was performed for 15 to 20 minutes. […] To confirm the cell protecting effect of the example compounds, a cytotoxicity LDH assay kit [Dojindo; CK12] was used to measure the level of extracellular secretion of lactate dehydrogenase (LDH). Briefly, at the time point when the 24-hour treatment of each cell type with RSL3 ended, 70 μL of each supernatant from cell culture medium was taken and transferred to a new 96-well plate. After adding 70 μL/well (the same amount as the sample) of the assay buffer included in the kit, the resulting mixture was wrapped with foil and allowed to react at room temperature for 15 to 20 minutes. After observing the color change of the sample, 35 μL/well of a stop solution was added, and the absorbance value at 490 nm was measured using an iD3 spectrophotometer to calculate the EC50 value.
(§2) Table 3. Effect of protecting cardiac cells, adrenal medulla cells, renal fibroblasts, retinal epithelial cells, lung epithelial cells, renal proximal tubule epithelial cells, hippocampal neurons, and fibroblasts against cell death induced by RSL3.

HT-22 = conditions: Mus musculus, HT-22, RSL3 0.3 μM, 24 hours
Description: as §1, §2

HK-2 = conditions: Homo sapiens, HK-2, RSL3 0.3 μM, 24 hours
Description: as §1, §2

ARPE-19 = conditions: Homo sapiens, ARPE-19, RSL3 0.3 μM, 24 hours
Description: as §1, §2

NRK-49F = conditions: Rattus norvegicus, RSL3 3 μM, 24 hours
Description: as §1, §2

PC-12 = conditions: Rattus norvegicus, PC-12, RSL3 0.3 μM, 24 hours
Description: as §1, §2

H9C2 = conditions: Rattus norvegicus, H9C2, RSL3 0.5 μM, 24 hours
Description: as §1, §2

MLE-12 = conditions: MLE12, MLE-12, RSL3 1 μM, 24 hours
Description: as §1, §2

Measured: EC50

O=S1(=O)CCN(Cc2cc(NCC3CCOCC3)c3[nH]c(-c4ccccc4)cc3c2)CC1 [Example 6, 4-((2-phenyl-7-(((tetrahydro-2H-pyran-4-yl)methyl)amino)-1H-indol-5-yl)methyl)thiomorpholine 1,1-dioxide]
0.03 to 0.1 µM: NIH/3T3 | HT-22 | PC-12
≤ 0.03 µM: all other assays above

Cc1cc(NC2CCCC2)c2[nH]c(-c3ccccc3)cc2c1 [Example 33, N-cyclopentyl-5-methyl-2-phenyl-1H-indole-7-amine]
0.03 to 0.1 µM: PC-12
≤ 0.03 µM: all other assays above

CCOC(=O)c1cc(NC2CCCC2)c2[nH]c(-c3ccccc3)cc2c1 [Example 2, ethyl 7-(cyclopentylamino)-2-phenyl-1H-indole-5-carboxylate]
≤ 0.03 µM: all assays above

CS(=O)(=O)N1CCC(Nc2cc(CN3CCS(=O)(=O)CC3)cc3cc(-c4ccccc4)[nH]c23)CC1 [Example 22, 4-((7-((1-(methylsulfonyl)piperidin-4-yl)amino)-2-phenyl-1H-indole-5-yl)methyl)thiomorpholine 1,1-dioxide]
≤ 0.03 µM: ARPE-19 | MLE-12
0.03 to 0.1 µM: all other assays above
